Assay results published in patent US20250304563A1, “ACTIVATORS OF EFFECTOR T CELLS” (Orum Therapeutics, Inc., priority 2022, published 2025).

Key:
[1] = target: Cbl-b (36-427 aa truncated form, N-terminus Avi-tag) (Homo sapiens (Human), UniProt Q13191); assay: Cbl-b binding: TR-FRET displacement of BODIPY-FL probe
Summary of the method: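 IC50 from loss of terbium–BODIPY-FL TR-FRET signal as compounds compete off a fluorescent Cbl-b inhibitor probe (1 uM) for 1 h at RT. Protein: N-Avi-tagged human Cbl-b 36-427 on streptavidin-terbium, 20 mM HEPES pH 7.5 buffer.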

Human primary T cells [2] = assay: T cell activation: secreted IL-2; type: cell-based; details: 48 hours, fold over background normalized to Compound 141A; for IL-2 1 nM: 1 nM compound; for IL-2 10 nM: 10 nM compound; for IL-2 100 nM: 100 nM compound
Experimental: (§1) Human primary T cells were isolated from commercially available frozen peripheral blood mononuclear cells (HemaCare Corporation) or from fresh LeukoPaks (Research Blood Components). T cells were isolated through depletion of non-T cells using negative selection kit according to the manufacturer's protocol (Miltenyi Biotec, Human Pan T Cell Isolation Kit, 130-096-535). Isolated cells were cultured overnight at 37° C. with 5% CO2 and plated at 1×10^5 cells per well in XVivo-15 serum-free media (Lonza, 04-418Q) into 96 well plates coated with anti-CD3 (OKT3) antibody (ThermoFisher, 16-0037-85). To coat the plates for T cell capture, anti-CD3 antibody was diluted in PBS at 10 μg/mL and 100 μl added to each well. Plates were incubated at 4° C. overnight or at 37° C. for 2 hours and washed once with PBS before use. Serial dilutions of each compound were added in duplicates to the T cells to assess their effect on T cell activation. T cells treated with 5 μg/mL of CD28 antibody (ThermoFisher, 16-0289-85) or T cells stimulated by CD3 only were used as a control. Plates were incubated with the Cbl-b inhibitors for 48 hours at 37° C. with 5% CO2, and supernatants were subsequently analyzed for levels of the activation induced secreted cytokines IL-2 or IFN-y (BD Biosciences CBA Flex Beads, 558269, 558270). T cells were additionally stained with anti-CD69 antibody (Invitrogen, 12-0699-42 which labels a T cell activation associated membrane protein to and surface expression was measured by flow cytometry (ThermoFisher Attune NxT).
(§2) To control for natural inter-donor variability in T cell responses intrinsic to using primary human donor derived cells, secreted IL-2 and IFN-y measurements for each test compound were reported as the fold increase of the compound treated levels over background (antiCD3/CD28 treatment only) normalized to the values obtained for Compound 141A. Results for compound treatment-induced changes in CD69 levels are similarly reported as the fold increase due to compound treatment over anti-CD3 stimulated background only, normalized to values obtained for Compound 141A.
Normalized T cell IL-2 responses were sorted into ranges as follows: fold over background values between 1.41 and 1.8: range “X”, between 0.80 and 1.40: range “A”, values between 0.31 and 0.79: range “B” values between 0.10 and 0.30: range “C”, values between 0.01 and 0.09: range “D.”

Human primary T cells [3] = assay: T cell activation: secreted IFN-y; type: cell-based; details: 48 hours, fold over background normalized to Compound 141A; for IFN-y 1 nM: 1 nM compound; for IFN-y 10 nM: 10 nM compound; for IFN-y 100 nM: 100 nM compound
Experimental: as §1, §2
Normalized T cell IFN-y responses were sorted into ranges as follows: fold over background between 1.10 and 2.00: range “A”, values between 0.31 and 1.00: range “B;” values between 0.10 and 0.30: range “C”, and values between 0.01 and 0.09: range “D.”

Human primary T cells [4] = assay: T cell activation: CD69 surface expression by flow cytometry; type: cell-based; details: fold over anti-CD3 stimulated background normalized to Compound 141A; for CD69 10 nM: 10 nM compound; for CD69 100 nM: 100 nM compound
Experimental: as §1, §2
Similarly, bins for normalized CD69 levels were sorted into ranges as follows: fold over background values between 1.11 and 1.6: range “X”, values between 0.81 and 1.10: range “A”; values between 0.61 and 0.80: range “B;” values between 0.30 and 0.60: range “C”.

Sequence of Cbl-b (36-427 aa truncated form, N-terminus Avi-tag) (Q13191 36-427): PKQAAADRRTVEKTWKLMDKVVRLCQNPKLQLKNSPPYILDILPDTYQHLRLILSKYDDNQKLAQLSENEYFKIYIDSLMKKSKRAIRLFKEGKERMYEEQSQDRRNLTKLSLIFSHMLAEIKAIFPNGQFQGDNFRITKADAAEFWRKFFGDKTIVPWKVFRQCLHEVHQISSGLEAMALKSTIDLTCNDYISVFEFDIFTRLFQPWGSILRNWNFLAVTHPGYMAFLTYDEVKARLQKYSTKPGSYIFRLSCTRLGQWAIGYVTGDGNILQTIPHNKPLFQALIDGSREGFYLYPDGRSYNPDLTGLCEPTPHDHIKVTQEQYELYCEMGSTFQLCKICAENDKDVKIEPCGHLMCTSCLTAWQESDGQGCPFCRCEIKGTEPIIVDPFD

Row | SMILES | IC50 [1] [µM] | IL-2 1 nM (Human primary T cells [2]) | IL-2 10 nM (Human primary T cells [2]) | IL-2 100 nM (Human primary T cells [2]) | IFN-y 1 nM (Human primary T cells [3]) | IFN-y 10 nM (Human primary T cells [3]) | IFN-y 100 nM (Human primary T cells [3]) | CD69 10 nM (Human primary T cells [4]) | CD69 100 nM (Human primary T cells [4])
1 | C[C@H]1CCCN(Cc2cc3c(c(C(F)(F)F)c2)CN(c2cc(C4(Cc5nncn5C)COC4)cc(NCCC#N)n2)C3=O)C1.O=CO [Compound 110, 3-[(4-{3-[(4-methyl-1,2,4-triazol-3-yl)methyl]oxetan-3-yl}-6-(6-{[(3S)-3-methylpiperidin-1-yl]methyl}-1-oxo-4-(trifluoromethyl)-3H-isoindol-2-yl)pyridin-2-yl)amino]propanenitrile; formic acid] | 0.001 to 0.005 | C (values between 0.10 and 0.30: range “C”) | B (values between 0.31 and 0.79: range “B”) | B (values between 0.31 and 0.79: range “B”) | B (values between 0.31 and 1.00: range “B;”) | B (values between 0.31 and 1.00: range “B;”) | B (values between 0.31 and 1.00: range “B;”) | B (values between 0.61 and 0.80: range “B;”) | A (values between 0.81 and 1.10: range “A”)
2 | CCNc1cc(C2(Cc3nncn3C)COC2)cc(N2Cc3c(cc(CN4CCC[C@H](CSC)C4)cc3C(F)(F)F)C2=O)n1 [Compound 111, 2-[6-(ethylamino)-4-{3-[(4-methyl-1,2,4-triazol-3-yl)methyl]oxetan-3-yl}pyridin-2-yl]-6-{[(3S)-3-[(methylsulfanyl)methyl]piperidin-1-yl]methyl}-4-(trifluoromethyl)-3H-isoindol-1-one] | 0.00501 to 0.02 | C (values between 0.10 and 0.30: range “C”) | B (values between 0.31 and 0.79: range “B”) | B (values between 0.31 and 0.79: range “B”) | B (values between 0.31 and 1.00: range “B;”) | B (values between 0.31 and 1.00: range “B;”) | B (values between 0.31 and 1.00: range “B;”) | B (values between 0.61 and 0.80: range “B;”) | A (values between 0.81 and 1.10: range “A”)
3 | CCSc1cc(C2(c3nncn3C)CC(C)C2)cc(N2Cc3c(cc(CN4CCC[C@H](C)C4)cc3C(F)(F)F)C2=O)n1 (stereo partly drawn) [Compound 112, 2-[6-(ethylsulfanyl)-4-[(1r,3s)-3-methyl-1-(4-methyl-1,2,4-triazol-3-yl)cyclobutyl]pyridin-2-yl]-6-{[(3S)-3-methylpiperidin-1-yl]methyl}-4-(trifluoromethyl)-3H-isoindol-1-one] | 0.02 to 0.1 | C (values between 0.10 and 0.30: range “C”) | C (values between 0.10 and 0.30: range “C”) | B (values between 0.31 and 0.79: range “B”) | C (values between 0.10 and 0.30: range “C”) | B (values between 0.31 and 1.00: range “B;”) | B (values between 0.31 and 1.00: range “B;”) | C (values between 0.30 and 0.60: range “C”) | B (values between 0.61 and 0.80: range “B;”)
4 | CCSc1cc(C2(c3nncn3C)CC(C)C2)cc(N2Cc3c(cc(CN4CCC[C@H](C)C4)cc3C(F)(F)F)C2=O)n1 (stereo partly drawn) [Compound 113, 2-[6-(ethylsulfanyl)-4-[(1s,3r)-3-methyl-1-(4-methyl-1,2,4-triazol-3-yl)cyclobutyl]pyridin-2-yl]-6-{[(3S)-3-methylpiperidin-1-yl]methyl}-4-(trifluoromethyl)-3H-isoindol-1-one] | 0.02 to 0.1 | C (values between 0.10 and 0.30: range “C”) | B (values between 0.31 and 0.79: range “B”) | B (values between 0.31 and 0.79: range “B”) | C (values between 0.10 and 0.30: range “C”) | B (values between 0.31 and 1.00: range “B;”) | B (values between 0.31 and 1.00: range “B;”) | B (values between 0.61 and 0.80: range “B;”) | A (values between 0.81 and 1.10: range “A”)
5 | C[C@H]1CCCN(Cc2cc3c(c(C(F)(F)F)c2)CN(c2cc(C4(Cc5nncn5C)COC4)cc(C#N)n2)C3=O)C1 [Compound 115, 4-{3-[(4-methyl-1,2,4-triazol-3-yl)methyl]oxetan-3-yl}-6-(6-{[(3S)-3-methylpiperidin-1-yl]methyl}-1-oxo-4-(trifluoromethyl)-3H-isoindol-2-yl)pyridine-2-carbonitrile] | 0.1 to 1 | C (values between 0.10 and 0.30: range “C”) | C (values between 0.10 and 0.30: range “C”) | B (values between 0.31 and 0.79: range “B”) | C (values between 0.10 and 0.30: range “C”) | C (values between 0.10 and 0.30: range “C”) | B (values between 0.31 and 1.00: range “B;”) | C (values between 0.30 and 0.60: range “C”) | B (values between 0.61 and 0.80: range “B;”)
6 | C=CC(=O)NCc1cc(C2(Cc3nncn3C)COC2)cc(N2Cc3c(cc(CN4CCC[C@H](C)C4)cc3C(F)(F)F)C2=O)n1 [Compound 116, N-[(4-{3-[(4-methyl-1,2,4-triazol-3-yl)methyl]oxetan-3-yl}-6-(6-{[(3S)-3-methylpiperidin-1-yl]methyl}-1-oxo-4-(trifluoromethyl)-3H-isoindol-2-yl)pyridin-2-yl)methyl]prop-2-enamide] | 0.00501 to 0.02 | C (values between 0.10 and 0.30: range “C”) | C (values between 0.10 and 0.30: range “C”) | B (values between 0.31 and 0.79: range “B”) | C (values between 0.10 and 0.30: range “C”) | C (values between 0.10 and 0.30: range “C”) | B (values between 0.31 and 1.00: range “B;”) | C (values between 0.30 and 0.60: range “C”) | B (values between 0.61 and 0.80: range “B;”)
7 | CCNc1cc(C2(Cc3nncn3C)COC2)cc(N2Cc3c(cc(C(CSC)N4CCC[C@H](C)C4)cc3C(F)(F)F)C2=O)n1.O=C(O)C(F)(F)F (stereo partly drawn) [Compound 117, 2-[6-(ethylamino)-4-{3-[(4-methyl-1,2,4-triazol-3-yl)methyl]oxetan-3-yl}pyridin-2-yl]-6-{1-[(3S)-3-methylpiperidin-1-yl]-2-(methylsulfanyl)ethyl}-4-(trifluoromethyl)-3H-isoindol-1-one; trifluoroacetic acid] | 0.02 to 0.1 | C (values between 0.10 and 0.30: range “C”) | C (values between 0.10 and 0.30: range “C”) | C (values between 0.10 and 0.30: range “C”) | C (values between 0.10 and 0.30: range “C”) | C (values between 0.10 and 0.30: range “C”) | B (values between 0.31 and 1.00: range “B;”) | C (values between 0.30 and 0.60: range “C”) | B (values between 0.61 and 0.80: range “B;”)
8 | C[C@H]1CCCN(Cc2cc3c(c(C(F)(F)F)c2)CN(c2cc(C4(Cc5nncn5C)COC4)cc(NCCN=[N+]=[N-])n2)C3=O)C1 [Compound 118, 2-{6-[(2-azidoethyl)amino]-4-{3-[(4-methyl-1,2,4-triazol-3-yl)methyl]oxetan-3-yl}pyridin-2-yl}-6-{[(3S)-3-methylpiperidin-1-yl]methyl}-4-(trifluoromethyl)-3H-isoindol-1-one] | 0.001 to 0.005 | B (values between 0.31 and 0.79: range “B”) | B (values between 0.31 and 0.79: range “B”) | A (between 0.80 and 1.40: range “A”) | B (values between 0.31 and 1.00: range “B;”) | A (fold over background between 1.10 and 2.00: range “A”) | A (fold over background between 1.10 and 2.00: range “A”) | A (values between 0.81 and 1.10: range “A”) | A (values between 0.81 and 1.10: range “A”)
